Article PMC7734235 (Computational and Structural Biotechnology Journal, 2020)

Target: T1, Rab5 (Homo sapiens, UniProt P20339)
T1 sequence (P20339 1-215): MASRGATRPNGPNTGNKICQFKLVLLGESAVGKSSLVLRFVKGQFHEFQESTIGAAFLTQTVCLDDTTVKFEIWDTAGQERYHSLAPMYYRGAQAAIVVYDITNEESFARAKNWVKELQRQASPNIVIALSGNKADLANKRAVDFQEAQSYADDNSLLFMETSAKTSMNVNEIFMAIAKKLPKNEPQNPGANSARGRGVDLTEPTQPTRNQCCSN
Assay: intrinsic fluorescence titration
Type: binding

## C=C1CC[C@@H]2[C@](C)(CO[C@@H]3O[C@H](CO)[C@@H](O)[C@H](O)[C@H]3O)CCC[C@@]2(C)[C@@H]1CCC1=CCOC1=O [NAP, Neoandrographolide]
  Kd: 350 ± 30 nM
